# Data as given in patent publication US8912227B1, “Bicyclic pyrrole derivatives useful as agonists of GPR120” (Janssen Pharmaceutica NV, priority 2014, dated 2014).
# Experiments:
# C57bl/6J Mice = experiment: GPR120 C57bl6 mouse IPGTT; type: in vivo; conditions: 30.0 mg/kg, dosed 30 minutes prior to IP glucose 1.5 g/kg; compared with vehicle
# Method: Male, C57bl/6J Mice were ordered in at 8 weeks of age from Jackson Labs. Individual mice weighed anywhere in the range of 25-30 grams on study day. The mice were fasted, with removal of food occurring at 7 am on the morning of the study. Animals were moved into the room at 10:00 am, to give them time to acclimate. Glucose (insulin syringes) was drawn up either the night before or the morning of the study. Glucose was dosed (IP) at 1.5 g/kg at 7.5 ml/kg (20% glucose straight TEKNOVA, 250 ml sterile bottle w/ catalogue number G0525). Test compounds were kept spinning and were only drawn into the syringes prior to study commencement. Animals were bled via tail snip to determine basal glucose levels prior to dosing of treatments. An Ascensia BREEZE Blood Glucose Monitoring System by Bayer (using unique 10-test disks) was used for determining glucose levels. The bleeds started at approximately 12:45 pm and dosing started, at 1-minute intervals, immediately after. All groups were dosed 30 minutes prior to glucose administration at a dose volume of 10 ml/kg (the dose volume was calculated separately for each individual animal). Thirty minutes after the first dose animals were bled again for a second baseline, or T=0, and immediately dosed with glucose via an i.p. injection. The exact dose volume for glucose was also calculated separately for each individual animal. […]
# Human GPR120 short form = target: T1, Human GPR120 short form (Homo sapiens, UniProt Q5NUL3); experiment: Human GPR120 calcium flux assay, Procedure Calcium B; type: cell-based; conditions: HEK-293 cells expressing human GPR120 short form, 4200 cells/well, FLIPR
# T1 construct: expressed in transfected cells
# T1 sequence (Q5NUL3 1-361): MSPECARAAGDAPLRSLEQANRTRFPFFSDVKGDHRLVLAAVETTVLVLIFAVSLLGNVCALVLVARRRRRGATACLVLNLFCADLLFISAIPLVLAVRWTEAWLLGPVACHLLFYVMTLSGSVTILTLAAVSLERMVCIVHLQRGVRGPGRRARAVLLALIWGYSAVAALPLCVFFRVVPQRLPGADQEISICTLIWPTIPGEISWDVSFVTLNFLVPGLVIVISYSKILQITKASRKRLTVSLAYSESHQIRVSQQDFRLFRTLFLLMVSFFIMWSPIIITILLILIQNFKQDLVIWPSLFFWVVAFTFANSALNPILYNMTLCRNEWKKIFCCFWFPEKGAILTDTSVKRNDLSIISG
EC50 (Human GPR120 short form) [nM],SMILES,GPR120 C57bl6 Mouse IPGTT Results (C57bl/6J Mice)
–,"Cc1c(CCC(=O)O)ccc(OCc2cccn2-c2ccc(Cl)cc2)c1C [Compound 1, 3-(4-{[1-(4-Chlorophenyl)-1H-pyrrol-2-yl]methoxy}-2,3-dimethylphenyl)propanoic acid]",not different
50,"Cc1ccc(-n2ccc(C(F)(F)F)c2COc2c(F)cc(CCC(=O)O)cc2F)cc1 [Compound 39, 3-(3,5-difluoro-4-[[1-(4-methylphenyl)-3-(trifluoromethyl)-1H-pyrrol-2-yl]methoxy]phenyl)propanoic acid]",–
162,"OCCCc1ccc(OCc2c(C(F)(F)F)ccn2-c2ccc(Cl)cc2)c(F)c1F [Compound 29, 3-(4-{[1-(4-Chlorophenyl)-3-(trifluoromethyl)-1H-pyrrol-2-yl]methoxy}-2,3-difluorophenyl)propan-1-ol]",–
40,"CCc1ccc(-n2ccc(C(F)(F)F)c2COc2ccc(CCC(=O)O)c(F)c2F)cc1 [Compound 34, 3-(4-[[1-(4-ethylphenyl)-3-(trifluoromethyl)-1H-pyrrol-2-yl]methoxy]-2,3-difluorophenyl)propanoic acid]",–
